From PubChem BioAssay (NCI)
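Tested at 5 concentrations; 48 h exposure; 96-well plates; endpoints linearly interpolated, else capped at highest concentration. GI50: concentration for 50% inhibition of growth. Definition used: TGI = concentration required for complete inhibition of growth.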

Legend:
Assay in all cases: NCI tumour cell line growth inhibition, 48 h
SK-MEL-5 melanoma = tested on: SK-MEL-5 melanoma
PC-3 prostate = tested on: PC-3 prostate
K-562 leukemia = tested on: K-562 leukemia
A498 renal = tested on: A498 renal
ACHN renal = tested on: ACHN renal
M14 melanoma = tested on: M14 melanoma
HOP-92 NSCLC = tested on: HOP-92 NSCLC
NCI-H460 lung = tested on: NCI-H460 lung
CCRF-CEM leukemia = tested on: CCRF-CEM leukemia
UACC-257 melanoma = tested on: UACC-257 melanoma
OVCAR-3 ovarian = tested on: OVCAR-3 ovarian
SK-OV-3 ovarian = tested on: SK-OV-3 ovarian
CAKI-1 renal = tested on: CAKI-1 renal
OVCAR-4 ovarian = tested on: OVCAR-4 ovarian
RPMI-8226 leukemia = tested on: RPMI-8226 leukemia
T-47D breast = tested on: T-47D breast
SK-MEL-28 melanoma = tested on: SK-MEL-28 melanoma
MDA-MB-231 breast = tested on: MDA-MB-231 breast
A549 NSCLC = tested on: A549 NSCLC
MCF7 breast = tested on: MCF7 breast
NCI-H23 lung = tested on: NCI-H23 lung
UO-31 renal = tested on: UO-31 renal
NCI-H226 lung = tested on: NCI-H226 lung
SNB-19 CNS = tested on: SNB-19 CNS
SF-539 CNS = tested on: SF-539 CNS
MALME-3M melanoma = tested on: MALME-3M melanoma
COLO 205 colon = tested on: COLO 205 colon
SW-620 colon = tested on: SW-620 colon
DU-145 prostate = tested on: DU-145 prostate
SF-268 CNS = tested on: SF-268 CNS
U251 CNS = tested on: U251 CNS
HCT-15 colon = tested on: HCT-15 colon
786-0 renal = tested on: 786-0 renal
RXF 393 renal = tested on: RXF 393 renal
HT29 colon = tested on: HT29 colon
EKVX NSCLC = tested on: EKVX NSCLC
UACC-62 melanoma = tested on: UACC-62 melanoma
HCC-2998 colon = tested on: HCC-2998 colon
SN12C renal = tested on: SN12C renal
BT-549 breast = tested on: BT-549 breast
IGROV1 ovarian = tested on: IGROV1 ovarian
OVCAR-8 ovarian = tested on: OVCAR-8 ovarian
KM12 colon = tested on: KM12 colon
HCT-116 colon = tested on: HCT-116 colon
MDA-MB-435 = tested on: MDA-MB-435
MDA-MB-468 breast = tested on: MDA-MB-468 breast
OVCAR-5 ovarian = tested on: OVCAR-5 ovarian
SR leukemia = tested on: SR leukemia
SK-MEL-2 melanoma = tested on: SK-MEL-2 melanoma
HOP-62 NSCLC = tested on: HOP-62 NSCLC
SF-295 CNS = tested on: SF-295 CNS
NCI-H522 lung = tested on: NCI-H522 lung

## Cc1cc(=O)oc2cc(OCCCOc3ccc(/C=C/C(=O)Nc4ccccc4N)cc3)ccc12
SK-MEL-5 melanoma
  GI50: 0.716 µM
  TGI: 2.06 µM
PC-3 prostate
  GI50: 3.07 µM
  TGI: > 100 µM
K-562 leukemia
  GI50: 0.817 µM
  TGI: > 100 µM
A498 renal
  GI50: 2.34 µM
  TGI: 6.7 µM
ACHN renal
  GI50: 4.5 µM
  TGI: > 100 µM
M14 melanoma
  GI50: 3.16 µM
  TGI: > 100 µM
HOP-92 NSCLC
  GI50: 3.91 µM
  TGI: > 100 µM
NCI-H460 lung
  GI50: 1.79 µM
  TGI: > 100 µM
CCRF-CEM leukemia
  GI50: 0.31 µM
  TGI: 1.91 µM
UACC-257 melanoma
  GI50: 3.24 µM
  TGI: > 100 µM
OVCAR-3 ovarian
  GI50: 2.51 µM
  TGI: > 100 µM
SK-OV-3 ovarian
  GI50: 5.29 µM
  TGI: > 100 µM
CAKI-1 renal
  GI50: 3.38 µM
  TGI: > 100 µM
OVCAR-4 ovarian
  GI50: 2.82 µM
  TGI: > 100 µM
RPMI-8226 leukemia
  GI50: 0.276 µM
  TGI: 2.35 µM
T-47D breast
  GI50: 0.749 µM
  TGI: > 100 µM
SK-MEL-28 melanoma
  GI50: 3.6 µM
  TGI: > 100 µM
MDA-MB-231 breast
  GI50: 3.33 µM
  TGI: > 100 µM
A549 NSCLC
  GI50: 3.31 µM
  TGI: > 100 µM
MCF7 breast
  GI50: 0.702 µM
  TGI: > 100 µM
NCI-H23 lung
  GI50: 3.64 µM
  TGI: > 100 µM
UO-31 renal
  GI50: 0.775 µM
  TGI: > 100 µM
NCI-H226 lung
  GI50: 2.45 µM
  TGI: > 100 µM
SNB-19 CNS
  GI50: 3.72 µM
  TGI: > 100 µM
SF-539 CNS
  GI50: 2.22 µM
  TGI: > 100 µM
MALME-3M melanoma
  GI50: 3.27 µM
  TGI: > 100 µM
COLO 205 colon
  GI50: 2.14 µM
  TGI: 5.81 µM
SW-620 colon
  GI50: 3.6 µM
  TGI: > 100 µM
DU-145 prostate
  GI50: 4.71 µM
  TGI: > 100 µM
SF-268 CNS
  GI50: 1.95 µM
  TGI: > 100 µM
U251 CNS
  GI50: 5.49 µM
  TGI: > 100 µM
HCT-15 colon
  GI50: 2.4 µM
  TGI: > 100 µM
786-0 renal
  GI50: 3.13 µM
  TGI: > 100 µM
RXF 393 renal
  GI50: 4.16 µM
  TGI: > 100 µM
HT29 colon
  GI50: 4.8 µM
  TGI: > 100 µM
EKVX NSCLC
  GI50: 3.5 µM
  TGI: > 100 µM
UACC-62 melanoma
  GI50: 2.79 µM
  TGI: > 100 µM
HCC-2998 colon
  GI50: 3.17 µM
  TGI: > 100 µM
SN12C renal
  GI50: 2.22 µM
  TGI: > 100 µM
BT-549 breast
  GI50: 0.923 µM
  TGI: 3.27 µM
IGROV1 ovarian
  GI50: 1.28 µM
  TGI: > 100 µM
OVCAR-8 ovarian
  GI50: 4.18 µM
  TGI: > 100 µM
KM12 colon
  GI50: 3.9 µM
  TGI: > 100 µM
HCT-116 colon
  GI50: 2.24 µM
  TGI: > 100 µM
MDA-MB-435
  GI50: 4.42 µM
  TGI: > 100 µM
MDA-MB-468 breast
  GI50: 1.94 µM
  TGI: 8.14 µM
OVCAR-5 ovarian
  GI50: 4.34 µM
  TGI: > 100 µM
SR leukemia
  GI50: 1.81 µM
  TGI: > 100 µM
SK-MEL-2 melanoma
  GI50: 3.78 µM
  TGI: > 100 µM
HOP-62 NSCLC
  GI50: 4.93 µM
  TGI: > 100 µM
SF-295 CNS
  GI50: 3.42 µM
  TGI: > 100 µM
NCI-H522 lung
  GI50: 2.79 µM
  TGI: > 100 µM
